{"source": "patent US8759403B2", "about": "“Curcuminoids and its metabolites for the application in allergic ocular/nasal conditions” (Laila Pharmaceutical Pvt. Ltd., priority 2009, dated 2014)", "origin": "cited, not measured here", "key": {"murine model of allergy": {"tested_on": "murine model of allergy", "details": "mouse, in vivo"}, "guinea pigs": {"tested_on": "guinea pigs", "details": "20 mg/kg body weight"}}}
{"smiles": "COc1cc(/C=C/C(=O)CC(=O)/C=C/c2ccc(O)c(OC)c2)ccc1O", "note": "[curcumin]", "values": [{"measurement": "allergic response in treated animals", "setting": "murine model of allergy", "result": "marked inhibition of allergic response"}, {"measurement": "histamine release from mast cells", "setting": "mast cells", "result": "inhibitory effect"}, {"measurement": "airway hyper reactivity", "setting": "guinea pigs; p<0.0043", "result": "significantly inhibits"}, {"measurement": "OVA-induced airway constriction", "setting": "guinea pigs; p<0.0399", "result": "significantly inhibits"}]}
